One series in a line: in vivo. The conditions noted are these: male, Sprague Dawley, rat, iv.
For series [1] the following is noted: rat, in vivo.
Description: (§1) Experiments were performed on mature male Sprague Dawley rats (see Table II for weights). Prior to the experiments the animals were maintained on standard rat chow (Doust and Rabbidge, Sydney, Australia) and tap water. The animals were starved for 15-18h and then anaesthetized by peritoneal injection with Nembutal (Boehringer Ingelheim, Sydney, Australia) (4mg/kg Body Weight (B.W.) pentobarbitone). The internal jugular veins were exposed by blunt dissection and a small gauge silicone catheter (Dow Corning, Sydney, Australia) was introduced and secured with 5-0 silk sutures. Both internal jugular veins were catheterized; the left for dipeptide injection and the right for blood sampling. After insertion, the catheters were kept patent and with occasional flushes (0.2-0.5ml) of heparinized (10U/ml) isotonic saline.
(§2) All dipeptides were proven by to be >98% pure. […] Dipeptides were dissolved in 80mM sodium phosphate buffer, Ph 7.0, made isotonic with sodium chloride and filtered through a 0.2µm membrane filter (Millipore, Sydney, Australia).
(§3) Following an initial baseline blood sample (0.15-0.2ml) a bolus injection of dipeptide (0.2ml, see Table 1 for doses) was administered into the left catheter. Rapid blood samples were taken in the first 5 minutes and then at 10, 20 and 30 minutes following injection. Heparinized (10U/ml) isotonic saline (0.5ml) was injected into the sample catheter after the 5, 10 and 20 minute blood samples to maintain patency of the catheter. At each time point two blood samples were taken: the first, 0.1ml in volume, to remove traces of heparinized saline and blood from the catheter and the second, 0.15-ml in volume, for dipeptide and amino acid determination. One hour after injection of the dipeptide the bladder was exposed and urine was collected with a small gauge hypodermic needle.
(§4) Immediately following collection the blood (0.15-ml) and urine (0.5ml) samples were transferred to pre-weighed stoppered tubes containing 0.6ml of ice-cold 4% (w/v) sulfosalicylic acid. The samples were shaken vigorously and placed on ice for 10 minutes to allow complete deproteinization. The sample tubes were weighed and then centrifuged (bench-top, 1200 x g) for 10 minutes at 2-4°C. The resulting supernatant was filtered (0.45µm membrane, Millipore, Sydney, Australia) and stored at - 80°C. The volume of blood added to the tubes was determined by weight assuming a blood density of 1.06g/ml.
(§5) The concentration of dipeptides and amino acids in the deproteinized samples was determined using a HPLC modification of the standard ion-exchange chromatography, post-column ninhydrin method for physiological amino acids. The column temperature was modified for each dipeptide to produce complete separation of dipeptides and amino acids. The column temperatures were: 70°C for AlaGln, GlyTyr and GlnGly, 60°C for GlyGln, 55°C for GlnAla, and 45°C for AlaTyr.
(§6) Kinetic parameters were calculated for the disappearance of dipeptides, and the amino acids released from the dipeptides using standard equations. In calculating the amino acid clearance the dose was assumed to be that administered as the dipeptide. Baseline amino acid concentrations were subtracted from the amino acid concentrations measured following dipeptide injection to obtain the AUC for amino acids released from the dipeptides. AUC for dipeptides and the constituent amino acids was calculated using the trapezoidal method with extrapolation to infinite time.
(§7) Blood clearance was calculated by dividing the dose of dipeptide by the area under the blood concentration-versus-time curve (AUC). Elimination half-lifes (t½) were estimated from the relationship: t½ = ln2/β, where β is the rate constant for the terminal elimination phase. β was obtained by fitting the concentration-versus-time-curves to a two-compartment model by non-linear least squares regression.

Residues, ends and D or L forms follow the SMILES beside them.

The values below come from patent EP0646375A1, “Method of regulating blood amino acid levels” (CLINTEC NUTRITION COMPANY, priority 1993, dated 1995).

Description for in vivo: as §1, §2, §3, §4, §5, §6, §7

As a reminder, the clearance is the volume of plasma or blood freed of the substance per unit of time. The compound `C[C@H](N)C(=O)N[C@@H](CCC(N)=O)C(=O)O` [ALA-GLN] (H-Ala-Gln-OH) yielded a clearance in the series “in vivo” of 122 mL/min/kg.

Compound `C[C@H](N)C(=O)N[C@@H](Cc1ccc(O)cc1)C(=O)O` [ALA-TYR] (H-Ala-Tyr-OH) gave a clearance in the series “in vivo” of 155 mL/min/kg. Consider `C[C@H](NC(=O)[C@@H](N)CCC(N)=O)C(=O)O` [GLN-ALA] (H-Gln-Ala-OH), for which, in series [1], the “mean Vβ of the dipeptide” value lay within 0.06 to 0.07 L/kg; the “mean clearance of glutamine, times greater than glutamine from GlnGly or AlaGln” value is 4 times; the “mean t½ of glutamine, times shorter than glutamine from GlnGly or AlaGln” value stood at 3 times. Further, the “CLEARANCE OF: Dipeptide” value in series [1] (iv) is recorded as 278 mL/min/kg. `NC(=O)CC[C@H](N)C(=O)NCC(=O)O` [GLN-GLY] (H-Gln-Gly-OH) displayed a clearance in the series “in vivo” of 151 mL/min/kg. `NCC(=O)N[C@@H](CCC(N)=O)C(=O)O` [GLY-GLN] (H-Gly-Gln-OH): the “mean Vβ of the dipeptide” value in series [1] was 0.06 to 0.07 L/kg. The compound further returned a clearance in the series “in vivo” of 43 mL/min/kg. As for `NCC(=O)N[C@@H](Cc1ccc(O)cc1)C(=O)O` [GLY-TYR] (H-Gly-Tyr-OH), the “mean Vβ of the dipeptide” value in series [1] fell in the range of 0.06 to 0.07 L/kg. In addition, the clearance in “in vivo” stood at 101 mL/min/kg. On to `C[C@H](NC(=O)[C@@H](N)Cc1ccc(O)cc1)C(=O)O` [TYR-ALA], for which the “mean Vβ of the dipeptide” value in series [1] fell in the range of 0.06 to 0.07 L/kg. Also, the clearance in “in vivo” stood at 187 mL/min/kg.
